Experiments:
SARS-CoV-2 [1] = assay: (§1) Antiviral activity VSV-S pseudotyped SARS-CoV-2 Wuhan-Hu-1 harboring MN908947 mutant infected in human A549-ACE2 cells assessed as reduction in viral production at 10 uM preincubated with virus for 1 hrs followed by cell infection for 1 hrs and measured 24 hrs after replacement with fresh media with compound relative to control; format: functional, Severe acute respiratory syndrome coronavirus 2; design: scale not given: the % may be the effect or the level left; settings: time 26 hrs
SARS-CoV-2 [2] = assay: as §1, with “Green monkey VeroE6/TMPRSS2” for “human A549-ACE2”; format: functional, Severe acute respiratory syndrome coronavirus 2; design: scale not given: the % may be the effect or the level left; settings: time 26 hrs

SMILES	Activity (SARS-CoV-2 [1])	Activity (SARS-CoV-2 [2])
NCCOCCOCCC(=O)NCC(=O)NC(CCC(=O)NC(Cc1c(Sc2ccc([N+](=O)[O-])cc2)[nH]c2ccccc12)C(=O)O)(CCC(=O)NC(Cc1c(Sc2ccc([N+](=O)[O-])cc2)[nH]c2ccccc12)C(=O)O)CCC(=O)NC(Cc1c(Sc2ccc([N+](=O)[O-])cc2)[nH]c2ccccc12)C(=O)O (stereo unspecified)	>98%	>89%
O=C(CCOCCOCCOCCOCCC(=O)NCC(=O)NC(CCC(=O)NC(Cc1c(Sc2ccc([N+](=O)[O-])cc2)[nH]c2ccccc12)C(=O)O)(CCC(=O)NC(Cc1c(Sc2ccc([N+](=O)[O-])cc2)[nH]c2ccccc12)C(=O)O)CCC(=O)NC(Cc1c(Sc2ccc([N+](=O)[O-])cc2)[nH]c2ccccc12)C(=O)O)NCC(=O)NC(CCC(=O)NC(Cc1c(Sc2ccc([N+](=O)[O-])cc2)[nH]c2ccccc12)C(=O)O)(CCC(=O)NC(Cc1c(Sc2ccc([N+](=O)[O-])cc2)[nH]c2ccccc12)C(=O)O)CCC(=O)NC(Cc1c(Sc2ccc([N+](=O)[O-])cc2)[nH]c2ccccc12)C(=O)O (stereo unspecified)	>98%	>89%
CCC(CC)COC(=O)[C@H](C)N[P@](=O)(OC[C@H]1O[C@@](C#N)(c2ccc3c(N)ncnn23)[C@H](O)[C@@H]1O)Oc1ccccc1	>98%	>89%
